Where only a bound is given, the exact number is not on record here.

One series concerns the target T1, cGMP-PDE (Homo sapiens, UniProt O76074).
T1 construct: cGMP-PDE was separated from other isozymes in human platelets; from tissue; host or cells: human platelets
Description: cGMP-phosphodiesterase (PDE) Assay (human platelets). Type of series: biochemical. Here is the method:
cGMP-phosphodiesterase (PDE) Assay
cGMP-PDE was separated from other isozymes in human platelets by a modification of the method of Thompson et. al. (Cyclic Nucleotide Phosphodiesterase (PDE), in Methods of Enzymatic analysis, Vol 4, p127-234, 1984). In enzyme inhibition assays, the test compounds were dissolved in 10% DMSO and then diluted with assay buffer (50 mM Tris-HCl, pH 8.0, 0.1 mM dithiothreitol, 2 mM EGTA and 10 u/ml snake venom), at final concentrations ranging from 10^-10 to 10^-6 M. Assays were performed at 0.1 μM substrate ([^3 H]-cGMP) concentration, at 30° C. for 10 minutes using enzyme dilutions which gave 10-20% hydrolysis of substrate. Each assay was initiated by addition of substrate and terminated by addition of anion exchange resin (Dowex 1-X8, 25 μg/mg) followed by centrifugation for 10 minutes (3000 rpm, at 4° C.). Radioactivity of supernatant (^3 H-GMP) was assayed by liquid scintillation counting.

Series [1] has as its system aorta (spirally cut strips). Description: Smooth Muscle Relaxant: noradrenaline-contracted rat aorta strips. More on the design: species or system male Wistar rats. The conditions noted are these: contraction by noradrenaline 1 μM, 37° C. The procedure:
The aorta were carefully removed from male Wistar rats, cleaned of fat and extraneous tissue. Spirally cut strips of the aorta were placed in a 25 ml organ bath containing Tyrode solution of the following composition (mM); NaCl, 137; KCl, 2.7; CaCl2, 1.8; NaH2 PO4, 0.4; NaHCO3, 12.0; MgSO4, 1.1; glucose, 5.6. The bath was maintained at 37° C. and bubbled with 95% O2 and 5% CO2. The spirally cut strip was stretched to a resting force of 1.0 g, and the isometric contraction was recorded via a force development transducer on an ink writing recorder. Tissues were equilibrated for 60 minutes before contraction was induced by noradrenaline (NA, 1 μM). The test compounds were cumulatively added to organ bath in increasing concentrations ranging from 10^-8 to 10^-5 M, after maximum stable constriction to NA had been achieved.

The test system of series [2] is Coronary vasospasm induced with vasopressin. In words: Vasopressin Induced-vasospasm Model (ST segment depression). The format is in vivo, Male Donryu rats. The note with it: 10 mg/kg orally 30 minutes before vasopressin 0.2 iu/kg. Here is the method: Vasopressin Induced-vasospasm Model
Male Donryu rats, weighing 160-200 g, were anesthetized intraperitoneally with sodium pentobarbital (60 mg/kg) 15 minutes before intravenous administration of vasopressin, and the femoral vein was cannulated with polyethylene tubing (diameter 0.8 mm). Coronary vasospasm was induced with vasopressin (0.2 iu/kg) dissolved in saline through the cannula in the femoral vein. The each test compound (10 mg/kg) was administered orally 30 minutes before the administration of vasopressin. The standard limb lead II of the electrocardiogram was recorded with an electrocardiograph. The depression of ST segment was measured as the difference in the amplitudes of the ST segment after and just before the administration of vasopressin. The amplitudes of ST segment were measured at intervals of 0.5 minutes for 5 minutes after administration of vasopressin.

Series [3] has as its system Vascular smooth muscle cells (vSMCs). In words: vSMC Proliferation ([3H]-thymidine, PDGF-stimulated). The note with it: Rattus norvegicus, PDGF 10 ng/ml stimulation. The format is cell-based, male Wistar rats. Here is the method: Vascular smooth muscle cells (vSMCs) were prepared from explants of the thoracic aorta of 10 week old male Wistar rats by a modification of the method of Ross (J. Cell Biol., 50: 172, 1971). They were cultured in DMEM containing 10% fetal calf serum, 1% penicillin G and 1% streptomycin at 37° C. in a 95% air, 5% CO2 humidified atmosphere. vSMCs were seeded in 24 well plates and cultured in the presence of 10% fetal calf serum for 3 days. Cell growth then was arrested by transfer to serum free DMEA. After 24 hours, each test compound or vehicle was added to medium for 1 hour, and then cells were stimulated by PDGF (10 ng/ml). After 24 hours of additional incubation, [^3 H]-thymidine (1 μCi/ml) was added during the final 4 hours of incubation time, and trichloracetic acid insoluble radioactivity was assayed by liquid scintillation counting.

The next series has as its system Cyclosporin nephritis. Description: Cyclosporin Nephritis Model. The format is in vivo, Spontaneously hypertensive rats. The note with it: 3.2 mg/kg orally twice a day for two weeks; cyclosporin 50 mg/kg daily. Here is the method:
Cyclosporin Nephritis Model
Spontaneously hypertensive rats weighing 250-300 g were used. Cyclosporin dissolved in olive-oil containing 5% ethanol was given orally to the animals in a daily dose 50 mg/kg for 2 weeks. After the last dosing of cyclosporin, 24-hours urine was collected for urinalysis. Blood was withdrawn from the abdominal aorta under ether anesthesia 24 hours after the last dosing of cyclosporin, and plasma was separated by centrifugation for biochemical analysis. The animal were bled to death and kidneys were removed for histopathological examination.
The each test compound (3.2 mg/kg) was dissolved in PEG 400 and given orally by the volume of 1 ml/kg twice a day for two weeks.
(§1) Biochemistry and urinalysis: Urine volume, plasma creatinine, urine creatinine, blood urea nitrogen, plasma sodium, urine sodium, plasma potassium and urine potassium, were measured with an autoanalyzer (TBA-20R Toshiba, OM-6020 Daiichi Kagaku).
Histopathology: The kidneys were fixed in phosphate-buffered 10% formalin and its paraffin specimens were prepared and these sections were stained with hematoxylin.

The test system of series [4] is Genital Grooming and Penile Erection. Description: Effect on Genital Grooming and Penile Erection in Male Mice. The note with it: oral; observed for one hour; n=10. Type of series: in vivo, male ICR mice. Here is the method:
(d) Effect of Tested Compound on Genital Grooming and Penile Erection in Male Mice
Eight weeks old male ICR mice were housed under standard conditions of temperature, lighting and water supply before the experiment.
The test compound was dissolved in PEG400. After oral administration of the test compound, each mouse was transferred to an individual cage.

A short description of series [5]: Toxicity by repetitive oral administration. The format is in vivo, SD rat. The note with it: 32 mg/kg once a day orally, 14 consecutive days.
The subject of another series is FK506-induced nephritis. Description: Prevention of Experimental FK506-induced Nephritis by Cyclic Nucleotide Regulating Drugs (b). The note with it: 20 mg/kg intramuscularly 30 minutes before FK506 10 mg/kg/day, 14 days. Type of series: in vivo, male Sprague-Dawley rats. Here is the method: (b) Prevention of Experimental FK506-induced Nephritis by Cyclic Nucleotide Regulating Drugs
FK506 was administered orally to male Sprague-Dawley rats (body weights; 292-329 g) fed with low sodium diet (0.05% Sodium) in a daily dose of 10 mg/kg/day for 14 days. FK506 was provided in a solid dispersion formulation and dissolved in distilled water to a final concentration of 2 mg/ml. Papaverine was dissolved in saline to 5 mg/ml. Dipyridamole (i.v. formulation; 5 mg/ml) was purchased from Dainippon Pharmaceutical Co., Ltd. Papaverine (20 mg/kg) or dipyridamole (20 mg/kg) was administered intramuscularly 30 minutes before FK506 dosing. After the final dosing of FK506, 24-hours urine was collected for urinalysis. Blood was withdrawn from the abdominal aorta under ether anesthesia 24 hours after final dosing of FK506, and plasma was separated for biochemical analysis and plasma renin activity measurements. The kidney was removed from each animal and was fixed with in 10% formalin solution for histological analysis.

Another series relates to FK506 nephritis. In words: FK506 Nephritis Model (a). Type of series: in vivo, Spontaneously hypertensive rats. The conditions noted are these: orally twice a day for two weeks; FK506 18 mg/kg daily for 1 week. Here is the method: (a) Spontaneously hypertensive rats weighing 250-300 g were used. FK506 dissolved in olive-oil containing 5% ethanol was given orally to the animals in a daily dose 18 mg/kg for 1 week. After the last dosing of FK506, 24-hours urine was collected for urinalysis. Blood was withdrawn from the abdominal aorta under ether anesthesia 24 hours after the last dosing of FK506, and plasma was separated by centrifugation for biochemical analysis.
The each test compound was dissolved in PEG 400 and given orally by the volume of 1 ml/kg twice a day for two weeks.
as §1

Turning to `CCc1c(C(=O)C(C)C)c2ccc(C(N)=O)cc2n1Cc1ccccc1Cl` [37-(12), 1-(2-Chlorobenzyl)-2-ethyl-3-isobutyrylindole-6-carboxamide], the concentration for half-maximal inhibition (IC50) (on cGMP-PDE; in [1]) was < 100 nM throughout. Further, the “inhibiting activity (depression of ST segment)” value (“inhibiting activity” below) in series [2] is “more than 50%”.
As to `CCCc1c(C(=O)c2ccccc2)c2ccc(C(N)=O)cc2n1Cc1ccccc1Cl` [38-(1), 3-Benzoyl-1-(2-chlorobenzyl)-2-propylindole-6-carboxamide], the “inhibiting activity” value in [2] is “more than 50%”.
As to `CCCc1c(C(C)=O)c2ccc(C(N)=O)cc2n1Cc1ccccc1Cl` [Example 3, 3-acetyl-1-(2-chlorobenzyl)-2-propylindole-6-carboxamide], the concentration for half-maximal inhibition (IC50) (against cGMP-PDE; in series [3]) was < 100 nM each time. Besides, the “inhibiting activity” value in series [2] is “more than 50%”. Also, in the series with Cyclosporin nephritis, the “recovery in a measure of blood urea nitrogen” value is “more than 50%”. Further, the “recovery in a measure of creatinine clearance (ml/kg/min)” value (“recovery in a measure … (ml/kg/min)” for short) with Cyclosporin nephritis is recorded as “more than 40%”.
On to `CC(C)Cc1c(C(=O)C(C)C)c2ccc(C(N)=O)cc2n1Cc1ccccc1Cl` [Example 12, 1-(2-Chlorobenzyl)-2-isobutyl-3-isobutyrylindole-6-carboxamide], for which the half-inhibitory concentration (IC50) (against cGMP-PDE; in series [1]) was < 100 nM in each case. The “inhibiting activity” value in [2] was “more than 50%”.
Consider `CCCc1c(C(=O)COC)c2ccc(C(N)=O)cc2n1Cc1cc2c(cc1Cl)OCO2` [Example 27-(8), 1-(6-Chloro-3,4-methylenedioxybenzyl)-3-methoxyacetyl-2-propylindole-6-carboxamide], for which the IC50 (at cGMP-PDE; in [1]; in series [3]) was < 100 nM throughout. Besides, the “increase of the frequencies of genital grooming (average)” value in series [4] came out at 266%. For the same molecule, the “lengthening of the duration of penile erection (average)” value in series [4] was determined as 171%. Moreover, the “death on repetitive oral administration” value in [5] is reported as “the dead at dose of 32 mg/kg once a day for 14 consecutive days could not be observed”.
For `CCC(=O)c1c(CC)n(Cc2ccccc2Cl)c2cc(C#N)ccc12` [Example 42, 1-(2-chlorobenzyl)-2-ethyl-3-propionylindole-6-carbonitrile], the IC50 on cGMP-PDE is < 100 nM. Also, in series [2], the “inhibiting activity” value is “more than 50%”.
In the case of `CCc1c(C(=O)C(C)C)c2ccc(C#N)cc2n1Cc1ccccc1Cl` [Example 43, 1-(2-Chlorobenzyl)-2-ethyl-3-isobutyrylindole-6-carbonitrile], the IC50 (on cGMP-PDE; in series [1]) was < 100 nM throughout. In addition, in [2], the “inhibiting activity” value was “more than 50%”.
With `COc1ccc(Cc2nccc3cc(OC)c(OC)cc23)cc1OC` [Papaverine], in the series on FK506-induced nephritis, the “recovery in a measure of blood urea nitrogen” value was “more than 50%”, the “recovery in a serum creatinine” value is “more than 50%” and the “renofunction of FK506 dosed rats” value is “significantly improved renofunction”.
On to `O=C(O)C1CCN(c2nc(NCc3ccc4c(c3)OCO4)c3cc(Cl)ccc3n2)CC1` [compound (VIII), reference compound], for which, in the series on Cyclosporin nephritis, the “recovery in a measure of blood urea nitrogen” value was “more than 50%” and the “recovery in a measure … (ml/kg/min)” value is “more than 40%”. Also, in the series on FK506 nephritis, the “recovery in a measure … (ml/kg/min)” value was “more than 45%” and the “recovery in urinary sodium excretion” value is reported as “more than 50%”.
Take `OCCN(CCO)c1nc(N2CCCCC2)c2nc(N(CCO)CCO)nc(N3CCCCC3)c2n1` [dipyridamole, Dipyridamole]: in the series with FK506-induced nephritis, the “recovery in a measure of blood urea nitrogen” value was “more than 50%”, the “recovery in a serum creatinine” value is on record as “more than 50%” and the “renofunction of FK506 dosed rats” value is on record as “significantly improved renofunction”.

The values are drawn from US6069156A, “Indole derivatives as cGMP-PDE inhibitors” (Fujisawa Pharmaceutical Co., Ltd., priority 1995, dated 2000).
